# Measured values taken from ChEMBL document CHEMBL1138425, “Beta-secretase (BACE-1) inhibitors: accounting for 10s loop flexibility using rigid active sites” (Bioorg Med Chem Lett, 2007).
# Biological target: Beta-secretase 1 (Homo sapiens, UniProt P56817)
# Assay: Inhibition of BACE1
# Beta-secretase 1, sequence (P56817 whole entry): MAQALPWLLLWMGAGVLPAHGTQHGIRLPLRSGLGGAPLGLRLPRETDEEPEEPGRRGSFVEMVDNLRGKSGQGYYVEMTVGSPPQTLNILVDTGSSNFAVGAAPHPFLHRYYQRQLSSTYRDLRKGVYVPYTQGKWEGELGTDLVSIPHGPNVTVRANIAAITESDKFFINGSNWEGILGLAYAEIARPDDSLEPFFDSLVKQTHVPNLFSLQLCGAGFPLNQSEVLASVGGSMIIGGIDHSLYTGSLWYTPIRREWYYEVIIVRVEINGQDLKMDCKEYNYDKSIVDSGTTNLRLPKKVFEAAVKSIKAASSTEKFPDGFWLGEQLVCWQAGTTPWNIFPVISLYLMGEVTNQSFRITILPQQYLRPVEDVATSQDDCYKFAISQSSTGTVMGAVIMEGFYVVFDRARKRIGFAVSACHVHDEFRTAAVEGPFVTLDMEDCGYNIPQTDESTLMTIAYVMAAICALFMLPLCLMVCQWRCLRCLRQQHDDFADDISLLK
SMILES,Ki (read-out: Ki) [µM],Ki (read-out: Log Ki (converted)) [µM]
CC(C)C(=O)c1cc(-c2nnc([C@](C)(N)Cc3ccccc3)o2)cc(N(C)S(C)(=O)=O)c1,16.5,15.8
CCCN(c1cc(/C=C\C2CC2C)cc(-c2nnc([C@](C)(N)Cc3ccccc3)o2)c1)S(C)(=O)=O (some centres undefined),0.0519,0.0501
